Structures can show the parent of a compound that is named as a salt. Where two headings read alike, the source gives them in different places.
Assays:
[1] = target: T1, SARS-CoV-2 PLpro (nsp3 1564–1878) (Severe acute respiratory syndrome coronavirus 2, UniProt P0DTD1); assay: biochemical; set-up: FRET-quenched peptide (Pro3) cleavage by PLpro, 10 min pre-incubation, slope over 20 min, normalised to no-compound control; settings: read-out: % of control remaining
[2] = target: T1, SARS-CoV-2 PLpro (nsp3 1564–1878); assay: biochemical; set-up: FRET-quenched peptide (Pro3) cleavage by PLpro, 10 min pre-incubation, slope over 20 min, normalised to no-compound control; settings: read-out: % of control remaining; remark: listed apart in the source

SMILES: CC1=C(/C=C/C(C)=C/C=C/C(C)=C/C(=O)O)C(C)(C)CCC1 [Retinoic acid]
- remaining activity at 1.25 µM ([1]; Well no.=1252, low concentration screen): 98%
- remaining activity at 1.25 µM ([1]; Well no.=1628, low concentration screen): 95.7%
- remaining activity at 1.25 µM ([1]; Well no.=3132, low concentration screen): 102%
- remaining activity at 1.25 µM ([1]; Well no.=4426, low concentration screen): 101%
- remaining activity at 1.25 µM ([1]; Well no.=6163, low concentration screen): 106%
- remaining activity at 3.75 µM ([2]; Well no.=1252, high concentration screen): 98.8%
- remaining activity at 3.75 µM ([2]; Well no.=1628, high concentration screen): 99.6%
- remaining activity at 3.75 µM ([2]; Well no.=3132, high concentration screen): 104%
- remaining activity at 3.75 µM ([2]; Well no.=4426, high concentration screen): 101%
- remaining activity at 3.75 µM ([2]; Well no.=6163, high concentration screen): 108%

SMILES: O=C1c2c(O)ccc(O)c2C(=O)c2c(NCCNCCO)ccc(NCCNCCO)c21 [Mitoxantrone HCl]
- remaining activity at 1.25 µM ([1]; Well no.=4904, low concentration screen): 93.4%
- remaining activity at 3.75 µM ([2]; Well no.=4904, high concentration screen): 91.1%

SMILES: N#CC[C@H](C1CCCC1)n1cc(-c2ncnc3[nH]ccc23)cn1 [Ruxolitinib (INCB018424)]
- remaining activity at 1.25 µM ([1]; Well no.=4805, low concentration screen): 103%
- remaining activity at 3.75 µM ([2]; Well no.=4805, high concentration screen): 104%

SMILES: CC(C)NCC(O)COc1ccc(COCCOC(C)C)cc1 (racemic)
- remaining activity at 1.25 µM ([1]; Well no.=6415, low concentration screen): 99.2%
- remaining activity at 3.75 µM ([2]; Well no.=6415, high concentration screen): 93.2%

SMILES: CC(C)NNC(=O)c1ccncc1 [Iproniazid phosphate]
- remaining activity at 1.25 µM ([1]; Well no.=775, low concentration screen): 104%
- remaining activity at 3.75 µM ([2]; Well no.=775, high concentration screen): 105%

SMILES: C[C@H](Nc1cc(NS(=O)(=O)N2CCC2)nc(SCc2cccc(F)c2F)n1)[C@@H](O)CO [SRT3190]
- remaining activity at 1.25 µM ([1]; Well no.=7438, low concentration screen): 104%
- remaining activity at 1.25 µM ([1]; Well no.=8507, low concentration screen): 98.1%
- remaining activity at 3.75 µM ([2]; Well no.=7438, high concentration screen): 104%
- remaining activity at 3.75 µM ([2]; Well no.=8507, high concentration screen): 97.8%

SMILES: CNC(=O)[C@H]1O[C@@H](n2cnc3c(NCc4ccc(N)cc4)ncnc32)[C@H](O)[C@@H]1O [AB-MECA]
- remaining activity at 1.25 µM ([1]; Well no.=306, low concentration screen): 87.3%
- remaining activity at 1.25 µM ([1]; Well no.=8699, low concentration screen): 95.8%
- remaining activity at 3.75 µM ([2]; Well no.=306, high concentration screen): 87.8%
- remaining activity at 3.75 µM ([2]; Well no.=8699, high concentration screen): 98.3%

SMILES: C=CCn1c(=O)c2c(nc(-c3ccc(S(=O)(=O)O)cc3)n2C)n(C)c1=O [1-Allyl-3,7-dimethyl-8-p-sulfophenylxanthine]
- remaining activity at 1.25 µM ([1]; Well no.=16, low concentration screen): 98.3%
- remaining activity at 3.75 µM ([2]; Well no.=16, high concentration screen): 89.6%

SMILES: N[C@@H](CSSC[C@H](N)C(=O)O)C(=O)O [L-Cystine]
- remaining activity at 1.25 µM ([1]; Well no.=6393, low concentration screen): 104%
- remaining activity at 3.75 µM ([2]; Well no.=6393, high concentration screen): 106%

SMILES: CCNC(=O)[C@@H]1CCCN1C(=O)[C@H](CCCNC(=N)N)NC(=O)[C@H](CC(C)C)NC(=O)[C@@H](COC(C)(C)C)NC(=O)[C@H](Cc1ccc(O)cc1)NC(=O)[C@H](CO)NC(=O)[C@H](Cc1c[nH]c2ccccc12)NC(=O)[C@H](Cc1cnc[nH]1)NC(=O)[C@@H]1CCC(=O)N1 [Buserelin (Acetate)]
- remaining activity at 1.25 µM ([1]; Well no.=8151, low concentration screen): 106%
- remaining activity at 3.75 µM ([2]; Well no.=8151, high concentration screen): 104%

SMILES: CCC(=O)O[C@]1(C(=O)SCF)[C@H](C)C[C@H]2[C@@H]3C[C@H](F)C4=CC(=O)C=C[C@]4(C)[C@@]3(F)[C@@H](O)C[C@@]21C [Fluticasone (propionate)]
- remaining activity at 1.25 µM ([1]; Well no.=7515, low concentration screen): 98.2%
- remaining activity at 3.75 µM ([2]; Well no.=7515, high concentration screen): 97.6%

SMILES: CCOc1cc(C(C)(C)C)ccc1C1=N[C@@](C)(c2ccc(Cl)cc2)[C@@](C)(c2ccc(Cl)cc2)N1C(=O)N1CCN(CCCS(C)(=O)=O)CC1 [RG7112]
- remaining activity at 1.25 µM ([1]; Well no.=6676, low concentration screen): 94.8%
- remaining activity at 3.75 µM ([2]; Well no.=6676, high concentration screen): 94%

SMILES: N[C@@H](Cn1ccc(=O)[nH]c1=O)C(=O)O [S(-)-Willardiine]
- remaining activity at 1.25 µM ([1]; Well no.=1244, low concentration screen): 100%
- remaining activity at 3.75 µM ([2]; Well no.=1244, high concentration screen): 99.9%

SMILES: Cc1nnc(NC(=O)c2nc(S(=O)(=O)Cc3ccc(F)cc3)ncc2Cl)s1 [PK11007]
- remaining activity at 1.25 µM ([1]; Well no.=6834, low concentration screen): 86.8%
- remaining activity at 3.75 µM ([2]; Well no.=6834, high concentration screen): 87.8%

SMILES: Clc1ccccc1CN1CCc2sccc2C1 [Ticlopidine]
- remaining activity at 1.25 µM ([1]; Well no.=1746, low concentration screen): 92.5%
- remaining activity at 3.75 µM ([2]; Well no.=1746, high concentration screen): 92.5%

SMILES: C[C@H](NC(=O)CC=C1NC(=O)c2ccccc2N1)c1ccccc1 [(S)-3-(4-oxo-3,4-dihydroquinazolin-2(1H)-ylidene)-N-(1-phenylethyl)propanamide]
- remaining activity at 1.25 µM ([1]; Well no.=6083, low concentration screen): 95.2%
- remaining activity at 3.75 µM ([2]; Well no.=6083, high concentration screen): 95.2%

SMILES: C[n+]1cc2c3c(ccc2c2ccc4cc5c(cc4c21)OCO5)OCO3 [Sanguinarine (chloride)]
- remaining activity at 1.25 µM ([1]; Well no.=6636, low concentration screen): 99.4%
- remaining activity at 3.75 µM ([2]; Well no.=6636, high concentration screen): 98.9%

SMILES: NNC(=O)c1ccc(O)cc1 [4-Hydroxybenzhydrazide]
- remaining activity at 1.25 µM ([1]; Well no.=426, low concentration screen): 97.3%
- remaining activity at 3.75 µM ([2]; Well no.=426, high concentration screen): 97%

SMILES: CCc1ccc(N(CC(C)C)S(=O)(=O)c2ccc(OCC3CCOCC3)c(CO)c2)cc1 [GSK2981278]
- remaining activity at 1.25 µM ([1]; Well no.=8561, low concentration screen): 105%
- remaining activity at 3.75 µM ([2]; Well no.=8561, high concentration screen): 101%

SMILES: CC(N)=NCc1cccc(CN)c1 [1400W dihydrochloride]
- remaining activity at 1.25 µM ([1]; Well no.=1434, low concentration screen): 88%
- remaining activity at 3.75 µM ([2]; Well no.=1434, high concentration screen): 90.8%

SMILES: COc1cc(C[C@H]2C(=O)OC[C@@H]2Cc2ccc(OC)c(OC)c2)ccc1O [Arctigenin - (3R,4R)-4-[(3,4-Dimethoxyphenyl)methyl]dihydro-3-[(4-hydroxy-3-methoxyphenyl)methyl]-2(3H)-furanone]
- remaining activity at 1.25 µM ([1]; Well no.=2446, low concentration screen): 105%
- remaining activity at 3.75 µM ([2]; Well no.=2446, high concentration screen): 105%

SMILES: O=C(O)CCCCCCCC(=O)O [Azelaic acid]
- remaining activity at 1.25 µM ([1]; Well no.=243, low concentration screen): 100%
- remaining activity at 1.25 µM ([1]; Well no.=6157, low concentration screen): 108%
- remaining activity at 3.75 µM ([2]; Well no.=243, high concentration screen): 98.7%
- remaining activity at 3.75 µM ([2]; Well no.=6157, high concentration screen): 105%

SMILES: CC(N)=NCCC[C@H](N)C(=O)O [L-N5-(1-Iminoethyl)ornithine hydrochloride]
- remaining activity at 1.25 µM ([1]; Well no.=967, low concentration screen): 101%
- remaining activity at 3.75 µM ([2]; Well no.=967, high concentration screen): 101%

SMILES: O=C(NCC1CCCCN1)c1cc(OCC(F)(F)F)ccc1OCC(F)(F)F (stereo not shown) [Flecainide acetate]
- remaining activity at 1.25 µM ([1]; Well no.=709, low concentration screen): 98.5%
- remaining activity at 1.25 µM ([1]; Well no.=1649, low concentration screen): 101%
- remaining activity at 3.75 µM ([2]; Well no.=709, high concentration screen): 98.3%
- remaining activity at 3.75 µM ([2]; Well no.=1649, high concentration screen): 101%

SMILES: CNC(=O)c1cnn(-c2nc(N)c3ncn([C@@H]4O[C@H](CO)[C@@H](O)[C@H]4O)c3n2)c1 [Regadenoson]
- remaining activity at 1.25 µM ([1]; Well no.=6557, low concentration screen): 106%
- remaining activity at 1.25 µM ([1]; Well no.=8367, low concentration screen): 96.6%
- remaining activity at 3.75 µM ([2]; Well no.=6557, high concentration screen): 103%
- remaining activity at 3.75 µM ([2]; Well no.=8367, high concentration screen): 95.1%

SMILES: CNc1ccc2oc(C[C@H]3O[C@@]4(CC[C@H]3C)O[C@H]([C@H](C)C(=O)c3ccc[nH]3)[C@H](C)C[C@H]4C)nc2c1C(=O)O [Calcimycin]
- remaining activity at 1.25 µM ([1]; Well no.=376, low concentration screen): 98.7%
- remaining activity at 3.75 µM ([2]; Well no.=376, high concentration screen): 96.8%

SMILES: COc1cccc(-c2cc(=O)c3ccccc3o2)c1N [PD 98059]
- remaining activity at 1.25 µM ([1]; Well no.=2600, low concentration screen): 94.8%
- remaining activity at 3.75 µM ([2]; Well no.=2600, high concentration screen): 92%

SMILES: Cc1ccc(C)c(OCCn2cc(C(=O)O)c3ccccc32)c1 [ML-098]
- remaining activity at 1.25 µM [1]: 98.4%
- remaining activity at 3.75 µM [2]: 97.6%

SMILES: CNCC[C@@H](Oc1ccc(C(F)(F)F)cc1)c1ccccc1 [R-(-)-Fluoxetine hydrochloride]
- remaining activity at 1.25 µM ([1]; Well no.=419, low concentration screen): 92.7%
- remaining activity at 3.75 µM ([2]; Well no.=419, high concentration screen): 92.4%

From publication PMC8286840, “Identifying SARS-CoV-2 antiviral compounds by screening for small molecule inhibitors of Nsp3 papain-like protease” (Biochemical Journal, 2021)
